# Experimental data published in ChEMBL document CHEMBL3867476, “Novel 5-substituted 3-hydroxyphenyl and 3-nitrophenyl ethers of S-prolinol as α4β2-nicotinic acetylcholine receptor ligands” (Bioorg Med Chem Lett, 2016).
# Experiments:
# [1] = molecular target: Neuronal acetylcholine receptor; alpha3/beta4 (Homo sapiens, UniProt P30926+P32297); assay: Displacement of [3H]-epibatine from human alpha3beta4-nACHR expressed in […] cell membranes preincubated for 5 mins followed by overnight incubation with [3H]-epibatine by liquid scintillation counting analysis
# [2] = tested on: HEK243; assay: Selectivity ratio of Ki for human alpha3beta4-nACHR expressed in […] cells to Ki for alpha4beta2-nACHR in rat cerebral cortex membranes; assay type: cell-based
# [3] = molecular target: T1, Neuronal acetylcholine receptor; alpha4/beta2 (Rattus norvegicus, UniProt P09483+P12390); assay: Displacement of [3H]-epibatidine from alpha4beta2-nACHR in rat cerebral cortex membranes preincubated for 30 mins followed by overnight incubation with [3H]-epibatine; assay type: cell membranes, Membrane
# [4] = molecular target: T1, Neuronal acetylcholine receptor; alpha4/beta2; assay: Displacement of [3H]-cytisine from alpha4beta2-nACHR in rat whole brain membranes incubated for 60 mins; assay type: cell membranes, Membrane
# T1 sequence (P09483 whole entry): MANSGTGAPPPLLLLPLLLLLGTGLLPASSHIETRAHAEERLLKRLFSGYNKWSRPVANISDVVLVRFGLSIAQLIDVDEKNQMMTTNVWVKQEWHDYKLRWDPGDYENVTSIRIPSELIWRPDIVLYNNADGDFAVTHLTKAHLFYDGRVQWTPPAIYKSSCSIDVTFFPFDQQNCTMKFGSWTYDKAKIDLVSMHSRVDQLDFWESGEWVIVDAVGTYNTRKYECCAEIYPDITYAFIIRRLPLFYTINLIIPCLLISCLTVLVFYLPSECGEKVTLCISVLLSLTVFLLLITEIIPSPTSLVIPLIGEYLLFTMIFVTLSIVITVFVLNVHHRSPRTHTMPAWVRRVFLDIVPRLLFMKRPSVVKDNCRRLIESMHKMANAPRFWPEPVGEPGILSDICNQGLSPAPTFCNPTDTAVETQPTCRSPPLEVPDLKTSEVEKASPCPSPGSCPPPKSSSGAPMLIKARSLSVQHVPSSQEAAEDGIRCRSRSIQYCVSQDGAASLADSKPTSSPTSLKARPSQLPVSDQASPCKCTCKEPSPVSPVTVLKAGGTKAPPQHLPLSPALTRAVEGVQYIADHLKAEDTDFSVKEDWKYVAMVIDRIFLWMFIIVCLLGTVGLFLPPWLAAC
# T1 sequence (P12390 whole entry): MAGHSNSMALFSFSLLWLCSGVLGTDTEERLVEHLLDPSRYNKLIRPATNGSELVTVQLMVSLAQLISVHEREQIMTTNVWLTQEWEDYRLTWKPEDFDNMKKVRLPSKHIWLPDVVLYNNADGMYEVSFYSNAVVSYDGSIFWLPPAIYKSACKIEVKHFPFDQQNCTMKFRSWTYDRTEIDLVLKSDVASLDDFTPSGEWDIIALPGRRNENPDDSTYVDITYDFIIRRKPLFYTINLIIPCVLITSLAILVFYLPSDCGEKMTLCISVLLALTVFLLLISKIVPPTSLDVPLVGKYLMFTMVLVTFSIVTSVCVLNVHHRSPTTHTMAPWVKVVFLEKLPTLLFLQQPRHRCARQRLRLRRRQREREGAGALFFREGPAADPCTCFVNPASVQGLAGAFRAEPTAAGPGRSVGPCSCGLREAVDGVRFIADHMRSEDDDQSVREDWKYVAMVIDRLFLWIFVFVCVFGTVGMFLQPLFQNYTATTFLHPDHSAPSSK
# Chain of Neuronal acetylcholine receptor; alpha3/beta4 (P30926 whole entry): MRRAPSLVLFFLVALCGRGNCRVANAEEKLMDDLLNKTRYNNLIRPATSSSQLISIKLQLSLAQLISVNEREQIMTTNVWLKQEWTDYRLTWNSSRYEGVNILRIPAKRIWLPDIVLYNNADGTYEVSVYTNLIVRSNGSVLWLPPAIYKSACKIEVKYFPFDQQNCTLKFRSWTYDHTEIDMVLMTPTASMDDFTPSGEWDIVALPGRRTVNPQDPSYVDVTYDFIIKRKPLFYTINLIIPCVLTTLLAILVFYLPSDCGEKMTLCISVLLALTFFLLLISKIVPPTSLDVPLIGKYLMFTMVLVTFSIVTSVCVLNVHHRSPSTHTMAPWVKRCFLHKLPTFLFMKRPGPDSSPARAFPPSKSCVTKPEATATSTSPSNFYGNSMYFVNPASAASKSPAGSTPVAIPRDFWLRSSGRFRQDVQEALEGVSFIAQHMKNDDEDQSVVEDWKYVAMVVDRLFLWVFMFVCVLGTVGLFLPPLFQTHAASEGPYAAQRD
# Chain of Neuronal acetylcholine receptor; alpha3/beta4 (P32297 whole entry): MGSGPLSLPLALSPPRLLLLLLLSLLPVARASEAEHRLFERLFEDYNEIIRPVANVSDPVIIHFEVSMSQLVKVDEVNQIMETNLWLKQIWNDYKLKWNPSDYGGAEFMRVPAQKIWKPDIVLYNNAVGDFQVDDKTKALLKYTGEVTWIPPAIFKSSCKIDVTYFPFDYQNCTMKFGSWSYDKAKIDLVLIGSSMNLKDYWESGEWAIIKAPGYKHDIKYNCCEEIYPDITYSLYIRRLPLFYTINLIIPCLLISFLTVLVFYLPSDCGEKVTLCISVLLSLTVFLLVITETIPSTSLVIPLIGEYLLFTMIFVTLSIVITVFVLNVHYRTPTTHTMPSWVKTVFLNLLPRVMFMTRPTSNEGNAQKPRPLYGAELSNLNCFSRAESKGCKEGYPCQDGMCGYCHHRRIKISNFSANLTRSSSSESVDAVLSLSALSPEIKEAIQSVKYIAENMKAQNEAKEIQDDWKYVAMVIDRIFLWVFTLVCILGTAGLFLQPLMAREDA
Compound,Ki [1],Ratio Ki [2],Ki [3],Ki [4]
CN1CCC[C@H]1COc1cccc(C#CCCCCO)c1,8300 nM,2,4400 nM,–
CN1CCC[C@H]1COc1cc(C#CCCCCO)cc([N+](=O)[O-])c1,1200 nM,85,14.2 nM,–
CN1CCC[C@H]1COc1cc(O)cc(-c2ccc(O)cc2)c1,30 nM,8,3.8 nM,–
CN1CCC[C@H]1COc1cc(O)cc(Br)c1,147 nM,0.8,186 nM,–
CN1CCC[C@H]1COc1cccc([N+](=O)[O-])c1,946 nM,30,31.2 nM,9 nM
CN1CCC[C@H]1COc1cc(-c2ccc(O)cc2)cc([N+](=O)[O-])c1,122 nM,10,12 nM,–
CN1CCC[C@H]1COc1cc(O)cc(C#CCCCCO)c1,3100 nM,131,23.7 nM,–
CN1CCC[C@H]1COc1cc(O)cc(-c2ccccc2)c1,200 nM,0.4,528 nM,–
CN1CCC[C@H]1COc1cc(Br)cc([N+](=O)[O-])c1,415 nM,8,55 nM,–
COc1cccc(OC[C@@H]2CCCN2C)c1,4500 nM,7,600 nM,–
CN1CCC[C@H]1COc1cc(-c2ccccc2)cc([N+](=O)[O-])c1,947 nM,3,330 nM,–
